Experimental data: ChEMBL document CHEMBL5537186 (J Med Chem, 2024)
Values after ≈ are worked out from the molar mass of the structure shown.

Columns and labels:
[1] = Lipophilicity, logD of compound at pH 7.4; assay type: physicochemical; conditions: buffer
[2] = Kinetic aqueous solubility of compound at pH 7.4; assay type: physicochemical; conditions: read-out: Kinetic_solubility
[3] = Metabolic stability in human hepatocytes assessed as compound remaining measured after 60 mins; assay type: ADME, cell-based, Hepatocyte; conditions: read-out: Stability

Row | logD [1] | solubility kinetic [2] [µM] | remaining at 1 h [3] [%] | SMILES
1 | 3.84 | 56 (≈ 29.3 µg/mL) | 45 | Cc1ccc(NC(=O)N2CC[C@@H](CC(F)(F)F)C2)cc1-c1cc(O[C@@H](C)CO)nc(N2CCOCC2)c1
2 | 3.86 | 15 (≈ 8.05 µg/mL) | 62 | Cc1ccc(NC(=O)N2CC[C@@H](CC(F)(F)F)C2)cc1-c1cc(OCC(C)(C)O)nc(N2CCOCC2)c1
3 | 3.67 | 43 (≈ 21.9 µg/mL) |  | Cc1ccc(NC(=O)N2CC[C@H](CC(F)(F)F)C2)cc1-c1cc(OCCO)nc(N2CCOCC2)c1
